Laboratory results: patent US20230321171A1, “ANTI-COCCIDIAL COMPOSITION COMPRISING MANGOSTEEN AND USES THEREOF” (CJ CHEILJEDANG CORPORATION, priority 2020, published 2023)

Legend:
[1] = test system: Eimeria maxima; experiment: Protozoan (sporozoite) direct killing ability, Eimeria maxima; format: cell-based; details: for Eimeria maxima protozoal death rate (%): compared to PBS-treated negative control group
Procedure: (§1) In the present example, protozoan (sporozoite) direct killing ability evaluation was conducted against 3 representative Eimeria kinds known to be infected in most farms (E. tenella, E. acervulina, E. maxima).
(§2) A certain amount of oocysts of each protozoan was put in a tube containing glass beads and pulverized, and then to remove the crushed oocyst cell wall and other debris, internal sporocysts were purified using the percoll density gradient, and washed with PBS solution. A reagent comprising sodium taurocholic acid (Sigma aldrich, USA) and trypsin (Gibco, USA), respectively, was treated to sporocysts of Eimeria tenella, Eimeria acervulina and Eimeria maxima for excystation and they were incubated, and then they were washed with PBS solution once and protozoa were obtained.
(§3) After reacting the mangosteen pericarp extract, epicatechin, alpha-mangostin, xanthone and anticoccidial agents, salinomycin and diclazuril (hereinafter, material) with 3 kinds of Eimeria protozoa at various concentrations of 1 to 500 ppm, respectively, only alive protozoa (sporozoites) were counted through microscopic observation. Then, the death rate (%) of the protozoa when each material was treated compared to the PBS-treated negative control group was calculated and shown in Table 8 to Table 10 and Table 12, respectively, and the minimum concentration which directly killed the protozoa by 100% was shown in Table 11 below.

[2] = Broiler growth effect (daily weight gain) due to intake in feed; format: in vivo, Ross broilers; details: for End body weight: non-infected broilers
Procedure: An efficacy evaluation test was performed in an animal experiment facility in Gyeongsangnam-do, South Korea. One-day-old female Ross broilers were individually weighed and randomly divided into groups to use in an experiment. Matters and conditions for experimental design were described in Table 16.
A breeding farm was managed according to the Korean poultry breeding management guidelines. Cages and the breeding farm were cleaned and disinfected before starting the test. The temperature of […] and the humidity of 40 to 50% of the breeding farm were maintained, and it was continuously monitored.
For the feed, Korea Feed A1-choi product was used, and each material (salinomycin (Cheil Bio Cheilsalino-60 product), xanthone (Sigma Aldrich X600 product), and the mangosteen extract prepared in Example 1-2 above) was added to the feed, respectively, at a concentration described in Table 17 below to be self-mixed. Antibiotics and supplements were not used in general feed and mixed feed, and no anticoccidial agent other than each material was added. Broilers were fed ad libitum throughout the experiment period. After putting 20 1-day-age broilers in cages randomly placed for each of the control group or test group and breeding, general feed was fed for 7 days, and then the mixed feed prepared above was ingested by dividing by control group or test group. The feed formulation administered to the control group (negative control group or positive control group) and test group was described in Table 17 below.
The body weight before feeding and on the 7th day after feeding the feed of Table 16 above into individuals was measured, and the difference was divided by the number of days to calculate the daily weight gain (ADG, g/d), and the result was shown in Table 18. For comparison between 6 treatment groups, Duncan post-test multiple comparison method was used, and statistical significance was verified using a SAS statistical program, and the result was shown in Table 18.

[3] = test system: Eimeria tenella; experiment: Protozoan (sporozoite) direct killing ability, Eimeria tenella; format: cell-based; details: for Eimeria tenella protozoal death rate (%): compared to PBS-treated negative control group
Procedure: as §1, §2, §3

[4] = formulated feed 125 ppm for 7 days
[5] = formulated feed 250 ppm for 7 days

O=c1c2ccccc2oc2ccccc12 [Xanthone, xanthone]
Eimeria maxima protozoal death rate (%) ([1]; 1 ppm): 0% | Eimeria maxima protozoal death rate (%) ([1]; 5 ppm): 0% | Eimeria maxima protozoal death rate (%) ([1]; 10 ppm): 0% | Eimeria maxima protozoal death rate (%) ([1]; 50 ppm): 0% | Eimeria maxima protozoal death rate (%) ([1]; 100 ppm): 0% | Eimeria maxima protozoal death rate (%) ([1]; 125 ppm): 0% | Eimeria maxima protozoal death rate (%) ([1]; 250 ppm): 5% | Eimeria maxima protozoal death rate (%) ([1]; 500 ppm): 12% | Minimum concentration for killing 100% protozoa (ppm), Eimeria maxima ([1]; tested 1 to 500 ppm): >500 ppm | Daily weight gain compared to the negative control group, in words ([2]; Table 18, Duncan p < 0.05, mangosteen extract also vs positive control and xanthone groups): rather reduced | Daily weight gain (ADG) [2, 4]: 43.86 g/day | End-initial body weight (7 days, g) [2, 4]: 307 g | End body weight [2, 4]: 509 g | Daily weight gain (ADG) [2, 5]: 40.57 g/day | End-initial body weight (7 days, g) [2, 5]: 284 g | End body weight [2, 5]: 485 g | Eimeria tenella protozoal death rate (%) ([3]; 1 ppm): 0% | Eimeria tenella protozoal death rate (%) ([3]; 5 ppm): 0% | Eimeria tenella protozoal death rate (%) ([3]; 10 ppm): 0% | Eimeria tenella protozoal death rate (%) ([3]; 50 ppm): 0% | Eimeria tenella protozoal death rate (%) ([3]; 100 ppm): 0% | Eimeria tenella protozoal death rate (%) ([3]; 125 ppm): 10% | Eimeria tenella protozoal death rate (%) ([3]; 250 ppm): 0% | Eimeria tenella protozoal death rate (%) ([3]; 500 ppm): 15% | Minimum concentrataion of killing protozoa 100% (ppm) ([3]; Eimeria tenella, Table 15, method similar to Example 2-1): ≥500 ppm | Minimum concentration for killing 100% protozoa (ppm), Eimeria tenella ([3]; tested 1 to 500 ppm): >500 ppm
